16 compounds from patent US20260355196A1, “INHIBITORS AND DEGRADERS OF PIP4K PROTEIN” (Larkspur Biosciences, Inc., priority 2023, published 2026) can be followed below.

Molecules are shown by their SMILES.

The target of the first assay is T1, PIP4K2C (Homo sapiens, UniProt Q8TBX8).
T1 sequence (Q8TBX8 1-421): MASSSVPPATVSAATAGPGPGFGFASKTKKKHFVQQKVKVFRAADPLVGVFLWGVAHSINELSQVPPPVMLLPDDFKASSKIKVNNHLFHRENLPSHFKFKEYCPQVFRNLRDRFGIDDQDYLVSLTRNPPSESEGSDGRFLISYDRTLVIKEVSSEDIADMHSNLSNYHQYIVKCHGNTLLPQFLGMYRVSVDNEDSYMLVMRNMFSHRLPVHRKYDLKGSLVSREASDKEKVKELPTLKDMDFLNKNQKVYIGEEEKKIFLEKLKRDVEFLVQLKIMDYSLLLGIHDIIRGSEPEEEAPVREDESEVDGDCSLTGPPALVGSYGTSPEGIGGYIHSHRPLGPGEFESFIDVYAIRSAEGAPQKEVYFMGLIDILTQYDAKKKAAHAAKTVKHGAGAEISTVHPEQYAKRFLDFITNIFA
The assay is described as follows: HiBiT PIP4K2C degradation assay in MOLT-4 cells (endogenous PIP4K2C C-terminally tagged with HiBiT). The assay is classed as cell-based. Also on record: untagged in primary human PBMCs and monocyte-derived dendritic cells. Particulars: 24 hours incubation, MOLT-4, top concentration 10 micromolar; read-out: HiBIT-degradation MOLT4 PIP4k2C 24 hours DC50. The procedure, abridged:
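Cells are plated onto compound dilutions (10 points, 3-fold, top 10 micromolar) and incubated 24 or 6 hours at 37 C. Lytic HiBiT detection then quantifies tagged endogenous PIP4K2C in MOLT-4, and a Hill fit yields DC50.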
Take `Cn1nc(C2CCC(=O)NC2=O)c2ccc(C3CCN(CCC4CCN(C(=O)[C@@H]5CCC[C@H](Nc6ncc(F)c(-c7cccc(-n8ccccc8=O)c7)n6)C5)CC4)CC3)cc21` (stereo partly drawn) [Compound 351, 3-(6-(1-(2-(1-((1R,3S)-3-((5-fluoro-4-(3-(2-oxopyridin-1(2H)-yl)phenyl)pyrimidin-2-yl)amino)cyclohexane-1-carbonyl)piperidin-4-yl)ethyl)piperidin-4-yl)-1-methyl-1H-indazol-3-yl)piperidine-2,6-dione]: the DC50 was less than 500 nM.
On the same count and under the same terms, next, `O=C1CCC(n2c(=O)oc3cc(C4CCN(C5CCN(CCC(=O)N6CCC(Nc7ncc(F)c(-c8cccc(-n9ccccc9=O)c8)n7)CC6)CC5)CC4)ccc32)C(=O)N1` (stereo not shown) [Compound 353, 3-(6-(1′-(3-(4-((5-fluoro-4-(3-(2-oxopyridin-1(2H)-yl)phenyl)pyrimidin-2-yl)amino)piperidin-1-yl)-3-oxopropyl)-[1,4′-bipiperidin]-4-yl)-2-oxobenzo[d]oxazol-3 (2H)-yl)piperidine-2,6-dione]: less than 500 nM; `Cc1ccc(=O)n(-c2cccc(-c3nc(N[C@H]4CCC[C@@H](C(=O)N5CCC(CCN6CCC(c7ccc8c(c7)oc(=O)n8C7CCC(=O)NC7=O)CC6)CC5)C4)ncc3F)c2)c1` (stereo partly drawn) [Compound 354, 3-(6-(1-(2-(1-((1R,3S)-3-((5-fluoro-4-(3-(5-methyl-2-oxopyridin-1(2H)-yl)phenyl)pyrimidin-2-yl)amino)cyclohexane-1-carbonyl)piperidin-4-yl)ethyl)piperidin-4-yl)-2-oxobenzo[d]oxazol-3 (2H)-yl)piperidine-2,6-dione]: less than 500 nM.
Consider `O=C1CCC(n2c(=O)oc3cc(C4CCN(CCC5CCN(C(=O)[C@@H]6CCC[C@H](Nc7ncc(F)c(-c8cccc(N9CCCOC9=O)c8)n7)C6)CC5)CC4)ccc32)C(=O)N1` (stereo partly drawn) [Compound 355, 3-(6-(1-(2-(1-((1R,3S)-3-((5-fluoro-4-(3-(2-oxo-1,3-oxazinan-3-yl)phenyl)pyrimidin-2-yl)amino)cyclohexane-1-carbonyl)piperidin-4-yl)ethyl)piperidin-4-yl)-2-oxobenzo[d]oxazol-3 (2H)-yl)piperidine-2,6-dione], for which the DC50 was 500 to 1000 nM.
On the same count and under the same terms, next, `O=C1CCC(n2c(=O)oc3cc(C4CCN(CCC5CCN(C(=O)[C@@H]6CCC[C@H](Nc7ncc(F)c(-c8cccc(N9CCCCC9=O)c8)n7)C6)CC5)CC4)ccc32)C(=O)N1` (stereo partly drawn) [Compound 356, 3-(6-(1-(2-(1-((1R,3S)-3-((5-fluoro-4-(3-(2-oxopiperidin-1-yl)phenyl)pyrimidin-2-yl)amino)cyclohexane-1-carbonyl)piperidin-4-yl)ethyl)piperidin-4-yl)-2-oxobenzo[d]oxazol-3 (2H)-yl)piperidine-2,6-dione]: less than 500 nM; `O=C1CCC(n2c(=O)oc3cc(C4CCN(CCC5CCN(C(=O)[C@@H]6CCC[C@H](Nc7ncc(F)c(-c8cccc(-n9cc(C(F)(F)F)ccc9=O)c8)n7)C6)CC5)CC4)ccc32)C(=O)N1` (stereo partly drawn) [Compound 357, 3-(6-(1-(2-(1-((1R,3S)-3-((5-fluoro-4-(3-(2-oxo-5-(trifluoromethyl)pyridin-1(2H)-yl)phenyl)pyrimidin-2-yl)amino)cyclohexane-1-carbonyl)piperidin-4-yl)ethyl)piperidin-4-yl)-2-oxobenzo[d]oxazol-3 (2H)-yl)piperidine-2,6-dione]: less than 500 nM.
Still for that read-out and setting: the result for `O=C1CCC(n2c(=O)oc3cc(N4CCC(CN5CCC(CC(=O)N[C@H]6CC[C@H](Nc7ncc(F)c(-c8cccc(-n9ccccc9=O)c8)n7)CC6)CC5)CC4)ccc32)C(=O)N1` (stereo partly drawn) [Compound 358, trans-2-(1-((1-(3-(2,6-dioxopiperidin-3-yl)-2-oxo-2,3-dihydrobenzo[d]oxazol-6-yl)piperidin-4-yl)methyl)piperidin-4-yl)-N-(4-((5-fluoro-4-(3-(2-oxopyridin-1(2H)-yl)phenyl)pyrimidin-2-yl)amino)cyclohexyl)acetamide] reads less than 500 nM.
The same measure, in the same setting: next, `O=C1CCC(n2c(=O)oc3cc(N4CCC(CN5CCN(CC(=O)N[C@H]6CC[C@H](Nc7ncc(F)c(-c8cccc(-n9ccccc9=O)c8)n7)CC6)CC5)CC4)ccc32)C(=O)N1` (stereo partly drawn) [Compound 360, 2-(4-((1-(3-(2,6-dioxopiperidin-3-yl)-2-oxo-2,3-dihydrobenzo[d]oxazol-6-yl)piperidin-4-yl)methyl)piperazin-1-yl)-N-(trans-4-((5-fluoro-4-(3-(2-oxopyridin-1(2H)-yl)phenyl)pyrimidin-2-yl)amino)cyclohexyl)acetamide]: less than 500 nM; `O=C1CCC(n2c(=O)oc3cc(C4CCN(CC5CCN(CC(=O)N[C@H]6CC[C@H](Nc7ncc(F)c(-c8cccc(N9CCCOC9=O)c8)n7)CC6)CC5)CC4)ccc32)C(=O)N1` (stereo partly drawn) [Compound 362, trans-2-(4-((4-(3-(2,6-dioxopiperidin-3-yl)-2-oxo-2,3-dihydrobenzo[d]oxazol-6-yl)piperidin-1-yl)methyl)piperidin-1-yl)-N-(4-((5-fluoro-4-(3-(2-oxo-1,3-oxazinan-3-yl)phenyl)pyrimidin-2-yl)amino)cyclohexyl)acetamide]: less than 500 nM.
As for `O=C1CCC(n2c(=O)oc3cc(C4CCN(CC5CCN(CC(=O)N[C@H]6CC[C@H](Nc7ncc(F)c(-c8cccc(N9CCOC9=O)c8)n7)CC6)CC5)CC4)ccc32)C(=O)N1` (stereo partly drawn) [Compound 363, trans-2-[4-[[4-[3-(2,6-dioxo-3-piperidyl)-2-oxo-1,3-benzoxazol-6-yl]-1-piperidyl]methyl]-1-piperidyl]-N-[4-[[5-fluoro-4-[3-(2-oxooxazolidin-3-yl)phenyl]pyrimidin-2-yl]amino]cyclohexyl]acetamide], the DC50 was less than 500 nM.
Same read-out and setting: next, `O=C1CCC(Nc2ccc(C3CCN(CC4CCN(CC(=O)N5CCC(Nc6ncc(F)c(-c7cccc(-c8ccc[nH]c8=O)c7)n6)CC5)CC4)CC3)c(F)c2)C(=O)N1` (stereo not shown) [Compound 364, 3-((3-fluoro-4-(1-((1-(2-(4-((5-fluoro-4-(3-(2-oxo-1,2-dihydropyridin-3-yl)phenyl)pyrimidin-2-yl)amino)piperidin-1-yl)-2-oxoethyl)piperidin-4-yl)methyl)piperidin-4-yl)phenyl)amino)piperidine-2,6-dione]: less than 500 nM; `O=C1CCC(Nc2ccc(C3CCN(CC4CCN(CC(=O)N[C@H]5CC[C@H](Nc6ncc(F)c(-c7cccc(-c8ccc[nH]c8=O)c7)n6)CC5)CC4)CC3)c(F)c2)C(=O)N1` (stereo partly drawn) [Compound 365, trans-2-(4-((4-(4-((2,6-dioxopiperidin-3-yl)amino)-2-fluorophenyl)piperidin-1-yl)methyl)piperidin-1-yl)-N-(4-((5-fluoro-4-(3-(2-oxo-1,2-dihydropyridin-3-yl)phenyl)pyrimidin-2-yl)amino)cyclohexyl)acetamide]: less than 500 nM; `O=C1CCC(n2c(=O)oc3cc(C4CCN(CC5CCN(C(=O)CN6CCC(Nc7ncc(F)c(-c8cccc(-c9ccccc9)c8)n7)CC6=O)CC5)CC4)ccc32)C(=O)N1` (stereo not shown) [Compound 366, 3-(6-(1-((1-(2-(4-((4-([1,1′-biphenyl]-3-yl)-5-fluoropyrimidin-2-yl)amino)-2-oxopiperidin-1-yl)acetyl)piperidin-4-yl)methyl)piperidin-4-yl)-2-oxobenzo[d]oxazol-3 (2H)-yl)piperidine-2,6-dione]: less than 500 nM.
For the compound `O=C1CCC(n2c(=O)oc3cc(C4CCN(CC5CCN(C(=O)CN6CCC(Nc7ncc(F)c(-c8cccc(-n9ccccc9=O)c8)n7)CC6=O)CC5)CC4)ccc32)C(=O)N1` (stereo not shown) [Compound 367, 3-(6-(1-((1-(2-(4-((5-fluoro-4-(3-(2-oxopyridin-1(2H)-yl)phenyl)pyrimidin-2-yl)amino)-2-oxopiperidin-1-yl)acetyl)piperidin-4-yl)methyl)piperidin-4-yl)-2-oxobenzo[d]oxazol-3 (2H)-yl)piperidine-2,6-dione], the DC50 is less than 500 nM.
For the compound `O=C1CCC(n2c(=O)oc3cc(C4CCN(CCC5CCN(C(=O)[C@H]6CC[C@H](Nc7ncc(F)c(-c8cccc(-c9ccc[nH]c9=O)c8)n7)CC6)CC5)CC4)ccc32)C(=O)N1` (stereo partly drawn) [Compound 368, 3-(6-(1-(2-(1-(trans-4-((5-fluoro-4-(3-(2-oxo-1,2-dihydropyridin-3-yl)phenyl)pyrimidin-2-yl)amino)cyclohexane-1-carbonyl)piperidin-4-yl)ethyl)piperidin-4-yl)-2-oxobenzo[d]oxazol-3 (2H)-yl)piperidine-2,6-dione], the DC50 is less than 500 nM.

The same assay, now with this note: read-out: HiBIT-degradation MOLT4 PIP4k2C 24 hours DC50; 24 hours incubation, MOLT-4, top concentration 10 micromolar.
For the compound `O=C1CCC(n2c(=O)oc3cc(C4CCN(CC5CCN(CC(=O)N[C@H]6CC[C@H](Nc7ncc(F)c(C8CCCN(C(=O)C9CC9)C8)n7)CC6)CC5)CC4)ccc32)C(=O)N1` (stereo partly drawn) [Compound 359, trans-N-(4-((4-(1-(cyclopropanecarbonyl)piperidin-3-yl)-5-fluoropyrimidin-2-yl)amino)cyclohexyl)-2-(4-((4-(3-(2,6-dioxopiperidin-3-yl)-2-oxo-2,3-dihydrobenzo[d]oxazol-6-yl)piperidin-1-yl)methyl)piperidin-1-yl)acetamide], the DC50 is less than 500 nM.
